# Measurements published in ChEMBL document CHEMBL3991601, “The target landscape of clinical kinase drugs” (Science, 2017).
# The source made the active and inactive calls. Rule as the data show it, for most assays here: actives have a measured Kd and inactives only a lower limit.
# Biological target: T1, Activin receptor type-1B (Homo sapiens, UniProt P36896)
# T1 sequence (P36896 whole entry): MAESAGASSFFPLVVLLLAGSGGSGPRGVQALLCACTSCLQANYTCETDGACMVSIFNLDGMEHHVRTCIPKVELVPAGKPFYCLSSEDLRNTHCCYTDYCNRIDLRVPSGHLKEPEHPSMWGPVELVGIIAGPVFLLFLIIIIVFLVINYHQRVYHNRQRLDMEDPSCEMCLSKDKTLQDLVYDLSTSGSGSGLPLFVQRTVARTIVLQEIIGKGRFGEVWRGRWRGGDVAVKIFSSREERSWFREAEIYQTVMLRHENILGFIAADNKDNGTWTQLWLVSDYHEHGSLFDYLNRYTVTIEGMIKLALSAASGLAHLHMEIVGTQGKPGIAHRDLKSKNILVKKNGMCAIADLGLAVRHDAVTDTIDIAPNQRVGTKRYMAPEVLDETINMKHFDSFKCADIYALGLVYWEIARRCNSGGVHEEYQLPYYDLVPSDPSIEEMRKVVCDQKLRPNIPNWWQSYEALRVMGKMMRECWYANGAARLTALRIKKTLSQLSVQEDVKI
# Also: in the data inactive means no Kd found up to 30 µM.
row,Structure (SMILES),Kd
1,O=C1NC(=O)/C(=C/c2ccc3nccc(-c4ccncc4)c3c2)S1 [GSK-1059615],> 30 µM (inactive)
2,COC(=O)[C@@]1(O)C[C@H]2O[C@]1(C)n1c3ccccc3c3c4c(c5c6ccccc6n2c5c31)C(=O)NC4 [K-252A],15.3 µM (active)
3,COc1cc2nccc(Oc3ccc(NC(=O)NC4CC4)c(Cl)c3)c2cc1C(N)=O [LENVATINIB],> 30 µM (inactive)
4,OCCn1cc(-c2cnc3nnn(Cc4ccc5ncccc5c4)c3n2)cn1 [PF-04217903],> 30 µM (inactive)
5,CNC(=O)c1ccc(C)c(-n2c(C)cc(OCc3ccc(F)cc3F)c(Br)c2=O)c1 [PH-797804],> 30 µM (inactive)

# Biological target: Serine/threonine-protein kinase MRCK alpha (Homo sapiens, UniProt Q5VT25)
# Sequence (Q5VT25 whole entry): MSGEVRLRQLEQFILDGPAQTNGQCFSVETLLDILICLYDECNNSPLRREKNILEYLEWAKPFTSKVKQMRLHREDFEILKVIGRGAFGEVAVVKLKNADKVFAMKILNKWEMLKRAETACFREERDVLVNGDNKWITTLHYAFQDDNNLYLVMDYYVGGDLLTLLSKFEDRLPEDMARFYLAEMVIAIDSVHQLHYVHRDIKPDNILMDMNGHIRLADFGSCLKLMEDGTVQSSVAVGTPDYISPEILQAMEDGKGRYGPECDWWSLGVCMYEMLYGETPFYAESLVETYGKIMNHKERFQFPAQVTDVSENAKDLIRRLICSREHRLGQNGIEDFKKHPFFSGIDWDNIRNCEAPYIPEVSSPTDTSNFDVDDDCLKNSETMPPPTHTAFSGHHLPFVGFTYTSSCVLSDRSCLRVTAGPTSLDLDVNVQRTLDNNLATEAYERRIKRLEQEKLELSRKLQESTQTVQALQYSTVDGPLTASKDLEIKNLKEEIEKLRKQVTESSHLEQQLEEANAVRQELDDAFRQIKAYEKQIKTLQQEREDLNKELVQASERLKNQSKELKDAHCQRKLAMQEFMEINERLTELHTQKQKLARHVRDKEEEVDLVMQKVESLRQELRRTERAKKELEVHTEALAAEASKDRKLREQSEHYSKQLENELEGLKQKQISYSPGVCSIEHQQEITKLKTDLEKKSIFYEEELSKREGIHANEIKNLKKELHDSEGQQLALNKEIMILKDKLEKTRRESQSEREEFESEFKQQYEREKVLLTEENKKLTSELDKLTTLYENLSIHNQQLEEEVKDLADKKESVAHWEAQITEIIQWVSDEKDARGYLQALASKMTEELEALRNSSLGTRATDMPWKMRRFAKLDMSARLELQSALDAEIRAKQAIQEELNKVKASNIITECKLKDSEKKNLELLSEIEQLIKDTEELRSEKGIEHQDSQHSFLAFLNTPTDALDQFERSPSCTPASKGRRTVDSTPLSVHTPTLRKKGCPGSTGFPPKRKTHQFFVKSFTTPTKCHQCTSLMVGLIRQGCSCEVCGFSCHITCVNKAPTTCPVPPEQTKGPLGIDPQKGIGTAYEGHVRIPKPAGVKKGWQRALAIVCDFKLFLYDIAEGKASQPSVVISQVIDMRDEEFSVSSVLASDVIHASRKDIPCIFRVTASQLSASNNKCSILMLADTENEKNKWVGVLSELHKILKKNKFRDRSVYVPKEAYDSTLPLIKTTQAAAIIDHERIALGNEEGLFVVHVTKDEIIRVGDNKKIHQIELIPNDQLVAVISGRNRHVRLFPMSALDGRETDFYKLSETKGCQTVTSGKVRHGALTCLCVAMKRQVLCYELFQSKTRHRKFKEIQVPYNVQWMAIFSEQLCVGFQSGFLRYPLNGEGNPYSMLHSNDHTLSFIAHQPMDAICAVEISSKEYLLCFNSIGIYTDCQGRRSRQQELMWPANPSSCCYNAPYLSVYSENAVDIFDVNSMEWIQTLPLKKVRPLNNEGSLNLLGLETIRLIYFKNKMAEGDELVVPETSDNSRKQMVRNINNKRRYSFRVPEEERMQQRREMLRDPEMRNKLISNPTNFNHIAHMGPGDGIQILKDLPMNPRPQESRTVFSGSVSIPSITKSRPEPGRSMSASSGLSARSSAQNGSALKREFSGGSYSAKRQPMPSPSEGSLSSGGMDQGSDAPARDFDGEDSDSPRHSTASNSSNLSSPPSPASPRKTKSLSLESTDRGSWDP
row,Structure (SMILES),Kd
1,O=C1NC(=O)/C(=C/c2ccc3nccc(-c4ccncc4)c3c2)S1 [GSK-1059615],> 30 µM (inactive)
2,COC(=O)[C@@]1(O)C[C@H]2O[C@]1(C)n1c3ccccc3c3c4c(c5c6ccccc6n2c5c31)C(=O)NC4 [K-252A],> 30 µM (inactive)
3,COc1cc2nccc(Oc3ccc(NC(=O)NC4CC4)c(Cl)c3)c2cc1C(N)=O [LENVATINIB],> 30 µM (inactive)
4,OCCn1cc(-c2cnc3nnn(Cc4ccc5ncccc5c4)c3n2)cn1 [PF-04217903],> 30 µM (inactive)
5,CNC(=O)c1ccc(C)c(-n2c(C)cc(OCc3ccc(F)cc3F)c(Br)c2=O)c1 [PH-797804],> 30 µM (inactive)

# Biological target: Casein kinase I isoform epsilon (Homo sapiens, UniProt P49674)
# Sequence (P49674 whole entry, canonical isoform): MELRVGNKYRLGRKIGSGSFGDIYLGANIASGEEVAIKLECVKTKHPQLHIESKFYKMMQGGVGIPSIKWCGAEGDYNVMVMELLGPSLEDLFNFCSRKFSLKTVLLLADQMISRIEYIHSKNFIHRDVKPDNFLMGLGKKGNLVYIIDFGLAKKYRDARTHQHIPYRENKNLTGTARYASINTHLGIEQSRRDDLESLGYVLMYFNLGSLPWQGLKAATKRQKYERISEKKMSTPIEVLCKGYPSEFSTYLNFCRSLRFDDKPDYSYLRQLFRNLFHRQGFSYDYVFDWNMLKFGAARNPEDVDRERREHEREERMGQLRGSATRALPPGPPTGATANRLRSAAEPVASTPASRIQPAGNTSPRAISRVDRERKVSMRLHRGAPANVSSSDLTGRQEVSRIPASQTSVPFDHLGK
row,Structure (SMILES),Kd
1,O=C1NC(=O)/C(=C/c2ccc3nccc(-c4ccncc4)c3c2)S1 [GSK-1059615],> 30 µM (inactive)
2,COC(=O)[C@@]1(O)C[C@H]2O[C@]1(C)n1c3ccccc3c3c4c(c5c6ccccc6n2c5c31)C(=O)NC4 [K-252A],> 30 µM (inactive)
3,OCCn1cc(-c2cnc3nnn(Cc4ccc5ncccc5c4)c3n2)cn1 [PF-04217903],> 30 µM (inactive)
4,CNC(=O)c1ccc(C)c(-n2c(C)cc(OCc3ccc(F)cc3F)c(Br)c2=O)c1 [PH-797804],> 30 µM (inactive)

# Biological target: Eukaryotic translation initiation factor 2-alpha kinase 1 (Homo sapiens, UniProt Q9BQI3)
# Sequence (Q9BQI3 whole entry): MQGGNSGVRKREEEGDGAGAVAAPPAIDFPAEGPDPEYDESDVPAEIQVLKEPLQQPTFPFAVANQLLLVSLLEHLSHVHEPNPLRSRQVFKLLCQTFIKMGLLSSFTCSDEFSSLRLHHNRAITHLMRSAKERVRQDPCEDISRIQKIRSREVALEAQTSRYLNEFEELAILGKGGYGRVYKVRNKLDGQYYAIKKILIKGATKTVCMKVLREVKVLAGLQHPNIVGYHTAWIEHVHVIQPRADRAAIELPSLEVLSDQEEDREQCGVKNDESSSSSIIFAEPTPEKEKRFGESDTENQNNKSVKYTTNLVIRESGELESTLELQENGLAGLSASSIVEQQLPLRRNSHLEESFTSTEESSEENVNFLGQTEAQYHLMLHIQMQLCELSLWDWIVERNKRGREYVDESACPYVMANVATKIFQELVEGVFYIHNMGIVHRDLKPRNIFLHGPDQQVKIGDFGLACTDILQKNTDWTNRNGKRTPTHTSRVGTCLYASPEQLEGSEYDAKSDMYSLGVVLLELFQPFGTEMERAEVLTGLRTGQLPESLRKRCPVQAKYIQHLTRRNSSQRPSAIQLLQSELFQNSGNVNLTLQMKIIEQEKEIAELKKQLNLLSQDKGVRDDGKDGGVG
row,Structure (SMILES),Kd
1,O=C1NC(=O)/C(=C/c2ccc3nccc(-c4ccncc4)c3c2)S1 [GSK-1059615],> 30 µM (inactive)
2,COC(=O)[C@@]1(O)C[C@H]2O[C@]1(C)n1c3ccccc3c3c4c(c5c6ccccc6n2c5c31)C(=O)NC4 [K-252A],> 30 µM (inactive)
3,COc1cc2nccc(Oc3ccc(NC(=O)NC4CC4)c(Cl)c3)c2cc1C(N)=O [LENVATINIB],> 30 µM (inactive)
4,OCCn1cc(-c2cnc3nnn(Cc4ccc5ncccc5c4)c3n2)cn1 [PF-04217903],> 30 µM (inactive)
5,CNC(=O)c1ccc(C)c(-n2c(C)cc(OCc3ccc(F)cc3F)c(Br)c2=O)c1 [PH-797804],> 30 µM (inactive)

# Biological target: Tyrosine-protein kinase FRK (Homo sapiens, UniProt P42685)
# Sequence (P42685 whole entry): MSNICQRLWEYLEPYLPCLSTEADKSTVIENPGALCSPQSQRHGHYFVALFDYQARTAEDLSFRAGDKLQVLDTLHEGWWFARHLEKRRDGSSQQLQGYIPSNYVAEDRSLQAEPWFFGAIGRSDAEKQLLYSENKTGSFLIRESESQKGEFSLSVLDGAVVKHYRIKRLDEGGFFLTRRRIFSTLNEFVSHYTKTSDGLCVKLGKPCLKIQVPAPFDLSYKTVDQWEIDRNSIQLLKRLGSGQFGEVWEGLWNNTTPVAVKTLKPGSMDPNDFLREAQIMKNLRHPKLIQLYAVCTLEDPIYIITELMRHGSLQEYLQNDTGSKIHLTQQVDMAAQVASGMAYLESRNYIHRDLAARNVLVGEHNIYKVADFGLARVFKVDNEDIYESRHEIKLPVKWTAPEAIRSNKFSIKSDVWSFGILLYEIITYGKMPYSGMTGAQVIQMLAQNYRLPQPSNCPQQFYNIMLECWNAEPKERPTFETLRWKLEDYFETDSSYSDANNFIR
row,Structure (SMILES),Kd
1,O=C1NC(=O)/C(=C/c2ccc3nccc(-c4ccncc4)c3c2)S1 [GSK-1059615],> 30 µM (inactive)
2,COC(=O)[C@@]1(O)C[C@H]2O[C@]1(C)n1c3ccccc3c3c4c(c5c6ccccc6n2c5c31)C(=O)NC4 [K-252A],> 30 µM (inactive)
3,COc1cc2nccc(Oc3ccc(NC(=O)NC4CC4)c(Cl)c3)c2cc1C(N)=O [LENVATINIB],> 30 µM (inactive)
4,OCCn1cc(-c2cnc3nnn(Cc4ccc5ncccc5c4)c3n2)cn1 [PF-04217903],> 30 µM (inactive)
5,CNC(=O)c1ccc(C)c(-n2c(C)cc(OCc3ccc(F)cc3F)c(Br)c2=O)c1 [PH-797804],> 30 µM (inactive)

# Biological target: Dual specificity mitogen-activated protein kinase kinase 1 (Homo sapiens, UniProt Q02750)
row,Structure (SMILES),Kd
1,O=C1NC(=O)/C(=C/c2ccc3nccc(-c4ccncc4)c3c2)S1 [GSK-1059615],18.5 µM (active)
2,CNC(=O)c1ccc(C)c(-n2c(C)cc(OCc3ccc(F)cc3F)c(Br)c2=O)c1 [PH-797804],> 30 µM (inactive)

# Biological target: Mitogen-activated protein kinase 9 (Homo sapiens, UniProt P45984)
# Sequence (P45984 whole entry): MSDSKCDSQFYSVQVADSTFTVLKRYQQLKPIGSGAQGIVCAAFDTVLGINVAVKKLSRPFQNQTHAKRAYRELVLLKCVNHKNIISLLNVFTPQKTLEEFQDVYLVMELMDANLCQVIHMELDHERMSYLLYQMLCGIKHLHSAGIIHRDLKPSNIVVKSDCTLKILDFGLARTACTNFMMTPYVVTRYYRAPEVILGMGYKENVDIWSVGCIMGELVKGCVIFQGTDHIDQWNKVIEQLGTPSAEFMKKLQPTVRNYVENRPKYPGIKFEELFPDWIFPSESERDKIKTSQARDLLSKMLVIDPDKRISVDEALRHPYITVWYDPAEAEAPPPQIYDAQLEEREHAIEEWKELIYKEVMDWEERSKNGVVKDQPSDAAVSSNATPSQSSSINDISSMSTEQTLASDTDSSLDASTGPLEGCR
row,Structure (SMILES),Kd
1,O=C1NC(=O)/C(=C/c2ccc3nccc(-c4ccncc4)c3c2)S1 [GSK-1059615],> 30 µM (inactive)
2,COC(=O)[C@@]1(O)C[C@H]2O[C@]1(C)n1c3ccccc3c3c4c(c5c6ccccc6n2c5c31)C(=O)NC4 [K-252A],0.986 µM (active)
3,COc1cc2nccc(Oc3ccc(NC(=O)NC4CC4)c(Cl)c3)c2cc1C(N)=O [LENVATINIB],> 30 µM (inactive)

# Biological target: NADH dehydrogenase [ubiquinone] 1 alpha subcomplex subunit 13 (Homo sapiens, UniProt Q9P0J0)
# Sequence (Q9P0J0 whole entry, one chain of several): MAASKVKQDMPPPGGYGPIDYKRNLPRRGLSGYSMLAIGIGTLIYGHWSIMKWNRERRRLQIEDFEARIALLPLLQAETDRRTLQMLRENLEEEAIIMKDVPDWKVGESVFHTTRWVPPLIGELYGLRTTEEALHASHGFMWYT
row,Structure (SMILES),Kd
1,O=C1NC(=O)/C(=C/c2ccc3nccc(-c4ccncc4)c3c2)S1 [GSK-1059615],> 30 µM (inactive)
2,COC(=O)[C@@]1(O)C[C@H]2O[C@]1(C)n1c3ccccc3c3c4c(c5c6ccccc6n2c5c31)C(=O)NC4 [K-252A],> 30 µM (inactive)
3,COc1cc2nccc(Oc3ccc(NC(=O)NC4CC4)c(Cl)c3)c2cc1C(N)=O [LENVATINIB],> 30 µM (inactive)
4,OCCn1cc(-c2cnc3nnn(Cc4ccc5ncccc5c4)c3n2)cn1 [PF-04217903],> 30 µM (inactive)
5,CNC(=O)c1ccc(C)c(-n2c(C)cc(OCc3ccc(F)cc3F)c(Br)c2=O)c1 [PH-797804],> 30 µM (inactive)

# Biological target: T2, Serine/threonine-protein kinase NLK (Homo sapiens, UniProt Q9UBE8)
# T2 sequence (Q9UBE8 whole entry): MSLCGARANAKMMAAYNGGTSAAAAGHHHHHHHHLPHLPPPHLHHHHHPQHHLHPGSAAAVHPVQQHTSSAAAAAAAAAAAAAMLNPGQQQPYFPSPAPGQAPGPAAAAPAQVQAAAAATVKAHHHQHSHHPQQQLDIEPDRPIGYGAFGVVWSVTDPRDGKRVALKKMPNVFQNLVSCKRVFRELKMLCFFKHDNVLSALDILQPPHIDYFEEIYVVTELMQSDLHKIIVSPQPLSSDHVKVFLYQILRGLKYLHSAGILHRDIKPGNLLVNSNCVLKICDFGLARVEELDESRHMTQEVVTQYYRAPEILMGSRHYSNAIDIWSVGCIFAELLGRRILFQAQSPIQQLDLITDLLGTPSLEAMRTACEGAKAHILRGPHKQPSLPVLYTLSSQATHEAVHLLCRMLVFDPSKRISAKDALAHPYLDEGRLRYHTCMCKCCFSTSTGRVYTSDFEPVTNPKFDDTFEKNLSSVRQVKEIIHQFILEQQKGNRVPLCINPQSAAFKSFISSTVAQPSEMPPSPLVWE
row,Structure (SMILES),Kd
1,COC(=O)[C@@]1(O)C[C@H]2O[C@]1(C)n1c3ccccc3c3c4c(c5c6ccccc6n2c5c31)C(=O)NC4 [K-252A],> 30 µM (inactive)
2,COc1cc2nccc(Oc3ccc(NC(=O)NC4CC4)c(Cl)c3)c2cc1C(N)=O [LENVATINIB],> 30 µM (inactive)
3,OCCn1cc(-c2cnc3nnn(Cc4ccc5ncccc5c4)c3n2)cn1 [PF-04217903],> 30 µM (inactive)
4,CNC(=O)c1ccc(C)c(-n2c(C)cc(OCc3ccc(F)cc3F)c(Br)c2=O)c1 [PH-797804],> 30 µM (inactive)

# Biological target: Serine/threonine-protein kinase N1 (Homo sapiens, UniProt Q16512)
# Sequence (Q16512 whole entry): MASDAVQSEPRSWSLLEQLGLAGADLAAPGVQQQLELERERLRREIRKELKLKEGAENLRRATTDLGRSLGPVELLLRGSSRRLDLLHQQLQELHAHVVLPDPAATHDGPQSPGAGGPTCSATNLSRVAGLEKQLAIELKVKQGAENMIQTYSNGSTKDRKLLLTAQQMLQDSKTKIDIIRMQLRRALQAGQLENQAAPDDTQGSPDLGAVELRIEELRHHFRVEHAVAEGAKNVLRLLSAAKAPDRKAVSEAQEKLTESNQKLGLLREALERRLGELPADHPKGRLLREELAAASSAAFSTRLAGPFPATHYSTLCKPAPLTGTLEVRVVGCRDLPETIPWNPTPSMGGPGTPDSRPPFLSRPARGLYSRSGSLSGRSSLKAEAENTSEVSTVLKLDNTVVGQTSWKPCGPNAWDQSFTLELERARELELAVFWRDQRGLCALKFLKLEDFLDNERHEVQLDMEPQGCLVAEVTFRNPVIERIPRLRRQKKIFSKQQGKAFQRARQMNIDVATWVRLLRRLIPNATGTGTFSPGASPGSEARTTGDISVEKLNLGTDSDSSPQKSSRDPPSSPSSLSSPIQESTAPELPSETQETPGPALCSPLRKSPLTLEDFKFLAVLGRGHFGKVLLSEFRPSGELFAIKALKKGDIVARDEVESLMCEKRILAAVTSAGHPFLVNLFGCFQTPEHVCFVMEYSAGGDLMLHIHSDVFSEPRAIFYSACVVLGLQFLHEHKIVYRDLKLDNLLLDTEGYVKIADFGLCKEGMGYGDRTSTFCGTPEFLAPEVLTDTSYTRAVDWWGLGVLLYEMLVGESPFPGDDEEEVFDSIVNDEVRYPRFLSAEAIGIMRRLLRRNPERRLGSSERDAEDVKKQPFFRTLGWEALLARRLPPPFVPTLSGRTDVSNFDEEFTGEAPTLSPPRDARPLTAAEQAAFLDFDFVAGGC
row,Structure (SMILES),Kd
1,O=C1NC(=O)/C(=C/c2ccc3nccc(-c4ccncc4)c3c2)S1 [GSK-1059615],> 30 µM (inactive)
2,COC(=O)[C@@]1(O)C[C@H]2O[C@]1(C)n1c3ccccc3c3c4c(c5c6ccccc6n2c5c31)C(=O)NC4 [K-252A],0.264 µM (active)
3,COc1cc2nccc(Oc3ccc(NC(=O)NC4CC4)c(Cl)c3)c2cc1C(N)=O [LENVATINIB],> 30 µM (inactive)
4,OCCn1cc(-c2cnc3nnn(Cc4ccc5ncccc5c4)c3n2)cn1 [PF-04217903],> 30 µM (inactive)
5,CNC(=O)c1ccc(C)c(-n2c(C)cc(OCc3ccc(F)cc3F)c(Br)c2=O)c1 [PH-797804],> 30 µM (inactive)

# Biological target: T3, Septin-9 (Homo sapiens, UniProt Q9UHD8)
# T3 sequence (Q9UHD8 whole entry): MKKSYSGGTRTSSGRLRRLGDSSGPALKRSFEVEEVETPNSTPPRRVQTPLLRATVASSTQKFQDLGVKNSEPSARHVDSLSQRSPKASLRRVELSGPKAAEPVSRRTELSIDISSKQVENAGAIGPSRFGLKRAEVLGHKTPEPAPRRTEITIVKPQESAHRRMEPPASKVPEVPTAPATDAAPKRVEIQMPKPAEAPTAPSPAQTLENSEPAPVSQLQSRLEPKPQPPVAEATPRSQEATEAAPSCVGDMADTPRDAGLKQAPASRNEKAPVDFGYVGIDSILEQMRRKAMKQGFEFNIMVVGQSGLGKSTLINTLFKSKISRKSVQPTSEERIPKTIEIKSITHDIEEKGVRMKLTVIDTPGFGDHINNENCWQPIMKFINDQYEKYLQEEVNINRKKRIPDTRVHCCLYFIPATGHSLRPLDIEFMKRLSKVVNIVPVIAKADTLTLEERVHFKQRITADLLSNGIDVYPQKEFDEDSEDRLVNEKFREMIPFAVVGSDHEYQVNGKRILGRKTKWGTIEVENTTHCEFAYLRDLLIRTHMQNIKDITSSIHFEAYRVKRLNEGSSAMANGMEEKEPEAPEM
row,Structure (SMILES),Kd
1,O=C1NC(=O)/C(=C/c2ccc3nccc(-c4ccncc4)c3c2)S1 [GSK-1059615],> 30 µM (inactive)
2,COC(=O)[C@@]1(O)C[C@H]2O[C@]1(C)n1c3ccccc3c3c4c(c5c6ccccc6n2c5c31)C(=O)NC4 [K-252A],> 30 µM (inactive)
3,COc1cc2nccc(Oc3ccc(NC(=O)NC4CC4)c(Cl)c3)c2cc1C(N)=O [LENVATINIB],> 30 µM (inactive)
4,OCCn1cc(-c2cnc3nnn(Cc4ccc5ncccc5c4)c3n2)cn1 [PF-04217903],> 30 µM (inactive)
5,CNC(=O)c1ccc(C)c(-n2c(C)cc(OCc3ccc(F)cc3F)c(Br)c2=O)c1 [PH-797804],> 30 µM (inactive)

# Biological target: Elongation factor Tu, mitochondrial (Homo sapiens, UniProt P49411)
row,Structure (SMILES),Kd
1,O=C1NC(=O)/C(=C/c2ccc3nccc(-c4ccncc4)c3c2)S1 [GSK-1059615],> 30 µM (inactive)
2,COC(=O)[C@@]1(O)C[C@H]2O[C@]1(C)n1c3ccccc3c3c4c(c5c6ccccc6n2c5c31)C(=O)NC4 [K-252A],> 30 µM (inactive)
3,COc1cc2nccc(Oc3ccc(NC(=O)NC4CC4)c(Cl)c3)c2cc1C(N)=O [LENVATINIB],> 30 µM (inactive)
4,OCCn1cc(-c2cnc3nnn(Cc4ccc5ncccc5c4)c3n2)cn1 [PF-04217903],> 30 µM (inactive)
5,CNC(=O)c1ccc(C)c(-n2c(C)cc(OCc3ccc(F)cc3F)c(Br)c2=O)c1 [PH-797804],> 30 µM (inactive)
